Our source for the Ki values is patent US8461107B2 (Merck Sharp & Dohme Corp., priority 2008, dated 2013).

The experiment has as its target T1, HCV genotype 1b (BK) NS3 modified with a R155K mutation (Hepatitis C virus genotype 1b, UniProt P26663, R1181K).
T1 construct: HCV genotype 1b (BK) NS3 modified with a R155K mutation
Briefly: HCV NS3 protease time-resolved fluorescence (TRF) assay, NS3 protease 1b R155K Ki activity. It counts as biochemical. As to conditions: HCV genotype 1b (BK) NS3 with R155K mutation; TRF peptide substrate 100 nM; Ki derived from IC50. On the procedure: The HCV NS3 protease inhibitory activity of the present compounds may be tested using assays known in the art. One such assay is HCV NS3 protease time-resolved fluorescence (TRF) assay as described below and in International Patent Application Publication WO 2006/102087. Other examples of such assays are described in e.g., International Patent Application Publication WO 2005/046712.
A NS3 protease assay can be performed, for example, in a final volume of 100 μl assay buffer containing 50 mM HEPES, pH 7.5, 150 mM NaCl, 15% glycerol, 0.15% TRITON X-100, 10 mM DTT, and 0.1% PEG 8000. NS3 and NS4A protease is pre-incubated with various concentrations of inhibitors in DMSO for 30 minutes. The reaction is initiated by adding the TRF peptide substrate (final concentration 100 nM). NS3 mediated hydrolysis of the substrate is quenched after 1 hour at room temperature with 100 μl of 500 mM MES, pH 5.5. Product fluorescence is detected using either a VICTOR V2 or FUSION fluorophotometer (Perkin Elmer Life and Analytical Sciences) with excitation at 340 nm and emission at 615 nm with a 400 μs delay. Testing concentrations of different enzyme forms are selected to result in a signal to background ratio (S/B) of 10-30. IC50 values are derived using a standard four-parameter fit to the data. Ki values are derived from IC50 values using the following formula, IC50=Ki(1+[S]/KM), Eqn (1), where [S] is the concentration of substrate peptide in the reaction and KM is the Michaelis constant. See P. Gallinari et al., 38 BIOCHEM. 5620-32 (1999); P. Gallinari et al., 72 J. VIROL. 6758-69 (1998); M. Taliani et al., 240 ANAL. BIOCHEM. 60-67 (1996).
The HCV NS3 protease inhibitory activity was measured using the protease time-resolved fluorescence (TRF) assay as described below and in International Patent Application Publication WO 2006/102087. The assay was performed with HCV genotype 1b (BK) NS3 modified with a R155K mutation.
The assay was performed in a final volume of 100 μl in assay buffer containing 50 mM HEPES, pH 7.5, 150 mM NaCl, 15% glycerol, 0.15% TRITON X-100, 10 mM DTT, and 0.1% PEG 8000. NS3 and NS4A protease is pre-incubated with various concentrations of inhibitors in DMSO for 30 minutes. The reaction is initiated by adding the TRF peptide substrate (final concentration 100 nM). NS3 mediated hydrolysis of the substrate is quenched after 1 hour at room temperature with 100 μl of 500 mM MES, pH 5.5. Product fluorescence is detected using either a VICTOR V2 or FUSION fluorophotometer (Perkin Elmer Life and Analytical Sciences) with excitation at 340 nm and emission at 615 nm with a 400 μs delay. Testing concentrations of the enzyme containing the R155K mutation were selected to result in a signal to background ratio (S/B) of 10-30. IC50 values are derived using a standard four-parameter fit to the data. Ki values are derived from IC50 values using the following formula, IC50=Ki(1+[S]/KM), Eqn (1), where [S] is the concentration of substrate peptide in the reaction and KM is the Michaelis constant. See P. Gallinari et al., 38 BIOCHEM. 5620-32 (1999); P. Gallinari et al., 72 J. VIROL. 6758-69 (1998); M. Taliani et al., 240 ANAL. BIOCHEM. 60-67 (1996).

As to `C=C[C@@H]1C[C@]1(NC(=O)[C@@H]1C[C@@H]2CN1C(=O)[C@H](C1CCCC1)NC(=O)O[C@@H]1CCC[C@H]1CC/C=C/Cc1c(nc3cc(OC)ccn3c1=O)O2)C(=O)NS(=O)(=O)C1CC1` [Example 57, (3aR,7S,10S,12R,22E,25aS)-7-cyclopentyl-N-((1R,2S)-1-{[(cyclopropylsulfonyl)amino]carbonyl}-2-vinylcylcopropyl)-16-methoxy-5,8,20-trioxo-1,2,3,3a,5,6,7,8,11,12,21,24,25,25a-tetradecahydro-10H,20H-9,12-methanocyclopenta[r]pyrido[1′,2′:1,2]pyrimido[4,5-k][1,10,3,6]dioxadiazacyclononadecine-10-carboxamide], the Ki (usually a measure of affinity in units of concentration, obtained from inhibition or displacement) was < 100 pM.
For `C=C[C@@H]1C[C@]1(NC(=O)[C@@H]1C[C@@H]2CN1C(=O)[C@H](C1CCCC1)NC(=O)O[C@@H]1CCC[C@H]1CC/C=C/Cn1c(nc3cc(C#N)ccc3c1=O)O2)C(=O)NS(=O)(=O)C1CC1` [Example 63, (3aR,7S,10S,12R,22E,25a8)-16-cyano-7-cyclopentyl-N-((1R,2S)-1-{[(cyclopropylsulfonyl)amino]carbonyl}-2-vinylcyclopropyl)-5,8,19-trioxo-1,2,3,3a,5,6,7,8,11,12,21,24,25,25a-tetradecahydro-10H,19H-9,12-methanocyclopenta[18,19][1,10,3,6,12]dioxatriazacyclononadecino[11,12-b]quinazoline-10-carboxamide] the value was < 100 pM; for `CC[C@@H]1C[C@]1(NC(=O)[C@@H]1C[C@@H]2CN1C(=O)[C@H](C1CCCC1)NC(=O)O[C@@H]1CCC[C@H]1CC/C=C/Cn1c(nc3ccccc3c1=O)O2)C(=O)NS(=O)(=O)C1CC1` [(3aR,7S,10S,12R,22E,25aS)-7-cyclopentyl-N-((1R,2R)-1-{[(cyclopropylsulfonyl)amino]carbonyl}-2-ethylcyclopropyl)-5,8,19-trioxo-1,2,3,3a,5,6,7,8,11,12,21,24,25,25a-tetradecahydro-10H,19H-9,12-methanocyclopenta[18,19][1,10,3,6,12]dioxatriazacyclononadecino[11,12-b]quinazoline-10-carboxamide], 100 to 500 pM; for `CC[C@@H]1C[C@]1(NC(=O)[C@@H]1C[C@@H]2CN1C(=O)[C@H](C1CCCC1)NC(=O)O[C@@H]1CCC[C@H]1CCCCCn1c(cc3ccc(F)cc3c1=O)O2)C(=O)NS(=O)(=O)C1CC1` [Example 16, (3aR,7S,10S,12R,25aR)-7-cyclopentyl-N-((1R,2R)-1-{[(cyclopropylsulfonyl)amino]carbonyl}-2-ethylcyclopropyl)-17-flouoro-5,8,19-trioxo-1,2,3,3a,5,6,7,8,11,12,21,22,23,24,25,25a-hexadecahydro-10H,19H-9,12-methanocyclopenta[18,19][1,10,3,6,12]dioxatriazacyclononadecino[12,11-b]isoquinoline-10-carboxamide], 100 to 500 pM.
Consider `C=C[C@@H]1C[C@]1(NC(=O)[C@@H]1C[C@@H]2CN1C(=O)[C@H](C1CCCC1)NC(=O)O[C@@H]1CCC[C@H]1CCCCCCn1c(cc3ccccc3c1=O)O2)C(=O)NS(=O)(=O)C1CC1` [(3aR,7S,10S,12R,26aR)-7-cyclopentyl-N-((1R,2S)-1-{[(cyclopropylsulfonyl)amino]carbonyl}-2-vinylcyclopropyl)-5,8,19-trioxo-2,3,3a,5,6,7,8,11,12,21,22,23,24,25,26,26a-hexadecahydro-1H,10H,19H-9,12-methanocyclopenta[19,20][1,10,3,6,12]dioxatriazacycloicosino[12,11-b]isoquinoline-10-carboxamide], for which the Ki was in the range of 100 to 500 pM.
For `C=C[C@@H]1C[C@]1(NC(=O)[C@@H]1C[C@@H]2CN1C(=O)[C@H](C1CCCC1)NC(=O)O[C@@H]1CCC[C@H]1CCCCCn1c(ccc(-c3ccccc3)c1=O)O2)C(=O)NS(=O)(=O)C1CC1` [(1R,14R,18R,22S,25S)-22-cyclopentyl-N-((1R,2S)-1-{[(cyclopropylsulfonyl)amino]carbonyl}-2-vinylcyclopropyl)-7,20,23-trioxo-6-phenyl-2,19-dioxa-8,21,24-triazatetracyclo[22.2.1.0^3,8.0^14,18]heptacosa-3,5-diene-25-carboxamide] the value was 100 to 500 pM.
For `C=C[C@@H]1C[C@]1(NC(=O)[C@@H]1C[C@@H]2CN1C(=O)[C@H](C1CCCC1)NC(=O)O[C@@H]1CCC[C@H]1CCCCCn1c(ccc(Br)c1=O)O2)C(=O)NS(=O)(=O)C1CC1` [(1R,14R,18R,22S,25S)-6-bromo-22-cyclopentyl-N-((1R,2S)-1-{[(cyclopropylsulfonyl)amino]carbonyl}-2-vinylcyclopropyl)-7,20,23-trioxo-2,19-dioxa-8,21,24-triazatetracyclo[22.2.1.0^3,8.0^14,18]heptacosa-3,5-diene-25-carboxamide] the value was 100 to 500 pM; for `C=C[C@@H]1C[C@]1(NC(=O)[C@@H]1C[C@@H]2CN1C(=O)[C@H](C1CCCC1)NC(=O)O[C@@H]1CCC[C@H]1CCCCCn1c(nc3cc(Br)ccc3c1=O)O2)C(=O)NS(=O)(=O)C1CC1` [(3aR,7S,10S,12R,25aR)-16-bromo-7-cyclopentyl-N-((1R,2S)-1-{[(cyclopropylsulfonyl)amino]carbonyl}-2-vinylcyclopropyl)-5,8,19-trioxo-1,2,3,3a,5,6,7,8,11,12,21,22,23,24,25,25a-hexadecahydro-10H,19H-9,12-methanocyclopenta[18,19][1,10,3,6,12]dioxatriazacyclononadecino[11,12-b]quinazoline-10-carboxamide], 100 to 500 pM.
For `CC[C@@H]1C[C@]1(NC(=O)[C@@H]1C[C@@H]2CN1C(=O)[C@H](C1CCCC1)NC(=O)O[C@H]1C[C@@H]1CCCCCn1c(cc3ccccc3c1=O)O2)C(=O)NS(=O)(=O)C1CC1` [(1aS,5S,8S,10R,23aS)-5-cyclopentyl-N-((1R,2R)-1-{[(cyclopropylsulfonyl)amino]carbonyl}-2-ethylcyclopropyl)-3,6,17-trioxo-1,1a,3,4,5,6,9,10,19,20,21,22,23,23a-tetradecahydro-8H,17H-7,10-methanocyclopropa[18,19][1,10,3,6,12]dioxatriazacyclononadecino[12,11-b]isoquinoline-8-carboxamide] the value was 100 to 500 pM.
With `C=C[C@@H]1C[C@]1(NC(=O)[C@@H]1C[C@@H]2CN1C(=O)[C@H](C(C)(C)C)NC(=O)O[C@@H]1CCC[C@H]1CCCCCCn1c(cc3ccccc3c1=O)O2)C(=O)NS(=O)(=O)C1CC1` [(3aR,7S,10S,12R,26aR)-7-tert-butyl-N-((1R,2S)-1-{[(cyclopropylsulfonyl)amino]carbonyl}-2-vinylcyclopropyl)-5,8,19-trioxo-2,3,3a,5,6,7,8,11,12,21,22,23,24,25,26,26a-hexadecahydro-1H,10H,19H-9,12-methanocyclopenta[19,20][1,10,3,6,12]dioxatriazacycloicosino[12,11-b]isoquinoline-10-carboxamide], the Ki fell in the range of 100 to 500 pM.
For `CC[C@@H]1C[C@]1(NC(=O)[C@@H]1C[C@@H]2CN1C(=O)[C@H](C1CCCC1)NC(=O)O[C@@H]1CCC[C@H]1CCCCCn1c(nc3cc(-c4ccccc4)ccc3c1=O)O2)C(=O)NS(=O)(=O)C1CC1` [(3aR,7S,10S,12R,25aR)-7-cyclopentyl-N-((1R,2R)-1-{[(cyclopropylsulfonyl)amino]carbonyl}-2-ethylcyclopropyl)-5,8,19-trioxo-16-phenyl-1,2,3,3a,5,6,7,8,11,12,21,22,23,24,25,25a-hexadecahydro-10H,19H-9,12-methanocyclopenta[18,19][1,10,3,6,12]dioxatriazacyclononadecino[11,12-b]quinazoline-10-carboxamide] the value was 100 to 500 pM.
